Laboratory results as given in US11034648B2, “Cystobactamide derivatives” (priority 2017, dated 2021).
In brackets after ≈: the same amount, converted by molar mass. Like-named read-outs stand apart in the source and are kept apart here.

What was measured:
Format in all cases: cell-based
S. aureus Newman = experiment: MIC, microbroth dilution susceptibility assay; conditions: Staphylococcus aureus, NEWMAN, read-out: MIC S. aureus Newman
Description: (§1) Cystobactamid derivatives synthesized were tested against relevant Gram negative and positive bacteria of clinical interest. Experimental procedures used for the biological characterization of the compounds are the same as previously described in WO 2016/082934.
(§2) Bacterial strains used in susceptibility assays (minimum inhibitory concentration, MIC) were either part of our internal strain collection or purchased from the German Collection of Microorganisms and Cell Cultures (Deutsche Sammlung von Mikroorganismen und Zellkulturen, DSMZ) and the American Type Culture Collection (ATCC). The susceptible E. coli strain (WT) and fluoroquinolone-resistant mutants E. coli WT-3 and WT-III were kindly provided by Prof Dr. P. Heisig, Pharmaceutical Biology and Microbiology, University of Hamburg, Germany. The efflux-deficient strain P. aeruginosa ΔmexAB was kindly provided by Prof Dr. S. Häußler, Institute for Molecular Bacteriology, TWINCORE, Hannover, Germany. All compounds were prepared as DMSO stocks and MIC values were determined in standard microbroth dilution assays in 96-well MTPs as described in Baumann et al., Angew Chem Int Ed Engl. 2014; 53(52):14605-9. In brief, overnight cultures of bacteria were diluted in either tryptic soy broth (TSB: 1.7% peptone casein, 0.3% peptone soymeal, 0.25% glucose, 0.5% NaCl, 0.25% K2HPO4; pH 7.3; S. pneumoniae and E. faecalis) or cation-adjusted Müller-Hinton Broth (BBL™, BD; all other bacteria) and adjusted to 10^4-10^6 cfu/mL. Bacteria were grown in the presence of the derivatives in serial dilution for approx. 16 h at 30-37° C. MIC values were determined and were defined as the antibiotic concentration at which no visual growth of bacteria was observed.

E. coli WT DSM-1116 = experiment: MIC, microbroth dilution susceptibility assay; conditions: Escherichia coli, read-out: MIC E. coli WT DSM-1116
Description: as §1, §2

P. aeruginosa WT PA14 = experiment: MIC, microbroth dilution susceptibility assay; conditions: Pseudomonas aeruginosa
Description: as §1, §2

P. aeruginosa ΔmexAB = experiment: microbe, parasite or virus in culture; conditions: Pseudomonas aeruginosa, 16 h
Description: as §1, §2

E. coli ΔtolC = experiment: microbe, parasite or virus in culture; conditions: Escherichia coli, 16 h
Description: as §1, §2

[1] = DSM1116, small panel, Tables 1a/1b, no visual growth after approx. 16 h
[2] = PA14, small panel, Tables 1a/1b, read-out: MIC P. aeruginosa WT PA14
[3] = read-out: MIC P. aeruginosa ΔmexAB, efflux-deficient strain, small panel, Tables 1a/1b
[4] = read-out: MIC E. coli ΔtolC, small panel, Tables 1a/1b, no visual growth after approx. 16 h

Row | Structure (SMILES) | MIC (S. aureus Newman; small panel, Tables 1a/1b) [µg/mL] | MIC (E. coli WT DSM-1116; [1]) [µg/mL] | MIC (P. aeruginosa WT PA14; [2]) [µg/mL] | MIC (P. aeruginosa ΔmexAB; [3]) [µg/mL] | MIC (E. coli ΔtolC; [4]) [µg/mL] | MIC (S. aureus Newman) [µg/mL] | MIC (E. coli WT DSM-1116; DSM1116, 16 h) [µg/mL] | MIC (P. aeruginosa WT PA14; PA14, read-out: MIC P. aeruginosa WT PA14) [µg/mL] | MIC (P. aeruginosa ΔmexAB; read-out: MIC P. aeruginosa ΔmexAB) [µg/mL] | MIC (E. coli ΔtolC; read-out: MIC E. coli ΔtolC) [µg/mL]
1 | CC(=O)Nc1ccc(C(=O)Nc2ccc(C(=O)N[C@@H](CC(N)=O)C(=O)Nc3ccc(C(=O)Nc4ccc(C(=O)Nc5ccc(C(=O)O)cc5)c(O)c4OC(C)C)cc3)cc2)cc1 [Compound 36, (S)-4-(4-(4-(2-(4-(4-acetamidobenzamido)benzamido)-4-amino-4-oxobutanamido)benzamido)-2-hydroxy-3-isopropoxybenzamido)benzoic acid] | 64 (≈ 75.8 µM) | 16 (≈ 19 µM) | > 64 | > 64 | 0.06 (≈ 0.0711 µM) |  |  |  |  | 
2 | CC(C)Oc1c(NC(=O)c2ccc(NC(=O)[C@H](CC(N)=O)NC(=O)c3ccc(NC(=O)c4ccccc4)cc3)cc2)ccc(C(=O)Nc2ccc(C(=O)O)cc2)c1O [Compound 38, (S)-4-(4-(4-(4-amino-2-(4-benzamidobenzamido)-4-oxobutanamido)benzamido)-2-hydroxy-3-isopropoxybenzamido)benzoic acid] |  |  |  |  |  | > 64 | > 64 | > 64 | 2 (≈ 2.54 µM) | 0.5 (≈ 0.635 µM)
3 | CC(C)Oc1c(NC(=O)c2ccc(NC(=O)[C@H](CC(N)=O)NC(=O)c3ccc(NC(=O)c4ccc(F)cc4)cc3)cc2)ccc(C(=O)Nc2ccc(C(=O)O)cc2)c1O [Compound 39, (S)-4-(4-(4-(4-amino-2-(4-(4-fluorobenzamido)benzamido)-4-oxobutanamido)benzamido)-2-hydroxy-3-isopropoxybenzamido)benzoic acid] | 2 (≈ 2.49 µM) | 0.5 (≈ 0.621 µM) | > 64 | 2 (≈ 2.49 µM) | 0.5 (≈ 0.621 µM) |  |  |  |  | 
4 | CC(C)Oc1c(NC(=O)c2ccc(NC(=O)[C@H](CC(N)=O)NC(=O)c3ccc(NC(=O)c4ccc(N)cc4)cc3)cc2)ccc(C(=O)Nc2ccc(C(=O)O)cc2)c1O [Compound 40, (S)-4-(4-(4-(4-amino-2-(4-(4-aminobenzamido)benzamido)-4-oxobutanamido)benzamido)-2-hydroxy-3-isopropoxybenzamido)benzoic acid] | > 64 | 2 (≈ 2.49 µM) | > 64 | 4 (≈ 4.99 µM) | 32 (≈ 39.9 µM) |  |  |  |  | 
5 | CC(C)Oc1c(NC(=O)c2ccc(NC(=O)[C@H](CC(N)=O)NC(=O)c3ccc(NC(=O)c4cccc([N+](=O)[O-])c4)cc3)cc2)ccc(C(=O)Nc2ccc(C(=O)O)cc2)c1O [Compound 41, (S)-4-(4-(4-(4-amino-2-(4-(3-nitrobenzamido)benzamido)-4-oxobutanamido)benzamido)-2-hydroxy-3-isopropoxybenzamido)benzoic acid] | > 64 | > 64 | > 64 | 0.5 (≈ 0.601 µM) | 0.25 (≈ 0.301 µM) |  |  |  |  | 
6 | CC(C)Oc1c(NC(=O)c2ccc(NC(=O)[C@H](CC(N)=O)NC(=O)c3ccc(NC(=O)c4cccc(N)c4)cc3)cc2)ccc(C(=O)Nc2ccc(C(=O)O)cc2)c1O [Compound 42, (S)-4-(4-(4-(4-amino-2-(4-(3-aminobenzamido)benzamido)-4-oxobutanamido)benzamido)-2-hydroxy-3-isopropoxybenzamido)benzoic acid] | > 64 | 32 (≈ 39.9 µM) | > 64 | 4 (≈ 4.99 µM) | 2 (≈ 2.49 µM) |  |  |  |  | 
7 | CC(C)Oc1c(NC(=O)c2ccc(NC(=O)[C@H](CC(N)=O)NC(=O)c3ccc(NC(=O)c4ccccc4[N+](=O)[O-])cc3)cc2)ccc(C(=O)Nc2ccc(C(=O)O)cc2)c1O [Compound 43, (S)-4-(4-(4-(4-amino-2-(4-(2-nitrobenzamido)benzamido)-4-oxobutanamido)benzamido)-2-hydroxy-3-isopropoxybenzamido)benzoic acid] | > 64 | > 64 | > 64 | > 64 | 2 (≈ 2.4 µM) |  |  |  |  | 
8 | CC(C)Oc1c(NC(=O)c2ccc(NC(=O)[C@H](CC(N)=O)NC(=O)c3ccc(NC(=O)c4ccc(C(F)(F)F)cc4)cc3)cc2)ccc(C(=O)Nc2ccc(C(=O)O)cc2)c1O [Compound 45, (S)-4-(4-(4-(4-amino-4-oxo-2-(4-(4-(trifluoromethyl)benzamido)benzamido)butanamido)benzamido)-2-hydroxy-3-isopropoxybenzamido)benzoic acid] | 16 to 32 (≈ 18.7 to 37.4 µM) | 0.5 (≈ 0.585 µM) | > 64 | > 64 | ≤ 0.03 |  |  |  |  | 
